One may read the Kd as the free concentration of one partner at which half of the binding sites on the other are occupied at equilibrium, for simple one-to-one binding. A high value points to a looser complex.

The values below come from PMC6150693 (Journal of the American Chemical Society, 2017).

In this experiment the target is T1, SBD2 (Lactococcus lactis, UniProt Q9CES5).
T1 sequence (Q9CES5 253-484 limits assumed): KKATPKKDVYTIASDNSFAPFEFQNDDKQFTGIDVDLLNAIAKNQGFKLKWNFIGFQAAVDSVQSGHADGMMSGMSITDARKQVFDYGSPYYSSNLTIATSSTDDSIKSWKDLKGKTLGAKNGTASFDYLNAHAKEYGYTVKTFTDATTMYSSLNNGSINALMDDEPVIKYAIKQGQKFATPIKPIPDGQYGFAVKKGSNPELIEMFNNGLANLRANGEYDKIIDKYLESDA
Put plainly: single-molecule ClyA nanopore current, relative closed population. The experiment is classed as binding.

In turn, `NC(=O)CC[C@H](N)C(=O)O` [glutamine] displayed a Kd of 830 ± 100 nM.
